Results: article PMC5908784, “Extracellular loops 2 and 3 of the calcitonin receptor selectively modify agonist binding and efficacy” (Biochemical Pharmacology, 2018)
Substitutions are numbered along the chain they refer to.

How the values were obtained:
hCTR I300A = target: T1, hCTR I300A (Homo sapiens, UniProt P30988, I300A); assay: IP1 accumulation; type: cell-based; details: IP1 maximal response, mean ± S.E.M., SEM
T1 construct: c-Myc (N); expressed in transfected cells
T1 sequence (P30988 25-474 I300A): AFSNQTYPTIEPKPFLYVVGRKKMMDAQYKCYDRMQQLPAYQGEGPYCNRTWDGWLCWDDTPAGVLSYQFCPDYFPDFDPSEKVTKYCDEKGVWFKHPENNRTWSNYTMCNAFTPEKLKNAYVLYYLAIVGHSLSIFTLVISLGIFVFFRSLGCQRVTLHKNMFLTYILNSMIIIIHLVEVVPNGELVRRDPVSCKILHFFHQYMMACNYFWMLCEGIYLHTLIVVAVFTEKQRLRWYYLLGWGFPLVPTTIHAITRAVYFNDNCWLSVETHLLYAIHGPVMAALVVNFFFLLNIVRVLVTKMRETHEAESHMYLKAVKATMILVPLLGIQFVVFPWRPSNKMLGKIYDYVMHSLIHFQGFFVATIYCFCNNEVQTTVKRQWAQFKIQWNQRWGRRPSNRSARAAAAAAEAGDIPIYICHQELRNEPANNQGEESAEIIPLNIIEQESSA
In short: (§1)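 HTRF IP-One readout of IP1 after 60 min ligand stimulation (LiCl present), cells seeded overnight. Normalized to 100 μM ATP max response. EC50/Emax via 3-parameter logistic curve fit.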

hCTR C289A = target: T2, hCTR C289A (Homo sapiens, UniProt P30988, C289A); assay: IP1 accumulation; type: cell-based; details: IP1 maximal response, mean ± S.E.M., SEM
T2 construct: c-Myc (N); expressed in transfected cells
T2 sequence (P30988 25-474 C289A): T1 sequence (P30988 25-474 I300A) with C265A, A276I
In short: as §1

SMILES | Emax (hCTR I300A) | Emax (hCTR C289A)
CC[C@H](C)[C@H](NC(=O)[C@H](C)NC(=O)[C@@H](NC(=O)[C@H](CCC(N)=O)NC(=O)[C@@H]1CCCN1C(=O)[C@H](Cc1ccccc1)NC(=O)[C@@H](NC(=O)[C@H](Cc1c[nH]cn1)NC(=O)[C@H](Cc1ccccc1)NC(=O)[C@H](CCCCN)NC(=O)[C@H](CC(N)=O)NC(=O)[C@H](Cc1ccccc1)NC(=O)[C@H](CC(=O)O)NC(=O)[C@H](CCC(N)=O)NC(=O)[C@@H](NC(=O)[C@H](Cc1ccc(O)cc1)NC(=O)[C@@H](NC(=O)CNC(=O)[C@H](CC(C)C)NC(=O)[C@H](CCSC)NC(=O)[C@@H]1CSSC[C@H](N)C(=O)NCC(=O)N[C@@H](CC(N)=O)C(=O)N[C@@H](CC(C)C)C(=O)N[C@@H](CO)C(=O)N[C@@H]([C@@H](C)O)C(=O)N1)[C@@H](C)O)[C@@H](C)O)[C@@H](C)O)[C@@H](C)O)C(=O)NCC(=O)N[C@H](C(=O)NCC(=O)N[C@@H](C)C(=O)N1CCC[C@H]1C(N)=O)C(C)C [hCT] | 44 ± 4% | 
CC(C)C[C@H](NC(=O)[C@H](CCCCN)NC(=O)CNC(=O)[C@H](CC(C)C)NC(=O)[C@@H](NC(=O)[C@@H]1CSSC[C@H](N)C(=O)N[C@@H](CO)C(=O)N[C@@H](CC(N)=O)C(=O)N[C@@H](CC(C)C)C(=O)N[C@@H](CO)C(=O)N[C@@H]([C@@H](C)O)C(=O)N1)C(C)C)C(=O)N[C@@H](CO)C(=O)N[C@@H](CCC(N)=O)C(=O)N[C@@H](CCC(=O)O)C(=O)N[C@@H](CC(C)C)C(=O)N[C@@H](Cc1c[nH]cn1)C(=O)N[C@@H](CCCCN)C(=O)N[C@@H](CC(C)C)C(=O)N[C@@H](CCC(N)=O)C(=O)N[C@H](C(=O)N[C@@H](Cc1ccc(O)cc1)C(=O)N1CCC[C@H]1C(=O)N[C@@H](CCCNC(=N)N)C(=O)N[C@H](C(=O)N[C@@H](CC(N)=O)C(=O)N[C@H](C(=O)NCC(=O)N[C@@H](CO)C(=O)NCC(=O)N[C@H](C(=O)N1CCC[C@H]1C(N)=O)[C@@H](C)O)[C@@H](C)O)[C@@H](C)O)[C@@H](C)O [sCT] |  | 42 ± 4%
